Several values for one entry are separate records, joined by “and”; a condition that tells them apart may be missing. Equal values may be shown once.
Tested on: DU-145 multicell spheroids with HUVEC/MSC, viability
Experiment: Anticancer human tumor DU-145 cell line growth inhibition [IpAb];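 further: spheroids exposed to agents for seven days before measurement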;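 on viability, T/C: percent of DMSO vehicle control viability so 100% = untreated level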
Conditions: for viability, T/C: stronger effect = lower value
Description: Combinatorial screen of targeted agents with ipatasertib and abemaciclib in multi-cell type tumor spheroids
A high-throughput screen of multi-cell type tumor spheroids was designed to identify active combinations of targeted small molecules and ipatasertib or abemaciclib. Complex spheroids include a stromal component modeled by human endothelial cells (HUVEC) and fibroblasts modeled by human mesenchymal stem cells (MSCs). The concentration ranges selected for each drug and investigational agent were based upon clinically achievable concentrations if the clinical Cmax of the agent was known.
Compounds. The drugs and investigational agents: ipatasertib (NSC767898), abemaciclib(NSC768073), selumetinib (NSC741078), trametinib (758246), adavosertib (NSC754352), everolimus (NSC733504), sapanisertib (NSC764658), vemurafenib (NSC761431), venetoclax (NSC766270), copanlisib (NSC809693), apelisib (NSC765974), palbociblib (NSC758247), vemurafenib (NSC761431), dabrafenib (NSC764134), ravoxertinib (NSC781343), BMS-387032 (NSC767048), sotorasib (NSC818433), talazoparib (NSC767125) and afursertib (NSC778305), were obtained from the National Cancer Institute (NCI) Developmental Therapeutics Program Chemical Repository. The FDA-approved anticancer drug set is available from the NCI Developmental Therapeutics Program. […] The stock solutions were prepared in dimethyl sulfoxide (DMSO, Sigma-Aldrich, St. Louis, MO, cat. D2650) at 800-fold the tested concentration and stored at -70 degrees C prior to their use. All drugs and investigational agents were tested over a range starting from a high concentration at or near the clinical Cmax and decreasing in half-log increments. If the clinical Cmax for an agent had not been determined, the highest concentration tested was 10 microM.
NCI60 Cell Culture. NCI60 cell lines were obtained from the NCI Developmental Therapeutics Program Tumor Repository. For each lot of cells, the Repository performed Applied Biosystems AmpFLSTR Identifiler testing with PCR amplification to confirm consistency with the published Identifier STR profile for each cell line. Cells were kept in continuous culture for no more than 20 passages. The optimal seeding densities for each of the cell lines at each time point assessed were determined prior to performing the concentration response studies. Briefly, the NCI60 human tumor lines were grown as monolayers in RPMI 1640 medium supplemented with 10% FBS and 2 mmol/L L-glutamine.
An additional 9 lines were from the NCI60 cell line panel including MDA-MB-231 breast carcinoma, MDA-MB-468 breast carcinoma, MCF7 breast carcinoma, Hs578T breast carcinoma, MALME-3M melanoma, SK-MEL-2 melanoma, SK-OV-3 ovarian carcinoma, DU-145 prostate carcinoma, PC-3 prostate carcinoma, all cell lines along with major genetic alterations are listed on Table 2. Pooled donor human umbilical vein endothelial cells (HUVEC, Lonza, cat. CC-2519) and human mesenchymal stem cells (hMSC, Lonza, cat. PT-2501) were purchased from Lonza (Walkersville, MD).
PDMR cell lines were grown in complete medium (DC medium): Dulbecco's modified Eagle's medium (DMEM)/F12 supplemented with 5% fetal bovine serum (FBS), 2 mM L-glutamine, 100 U/mL penicillin and 100 µg/ml streptomycin, 0.4 µg/ml hydrocortisone, 10 ng/ml epidermal growth factor (EGF) recombinant human protein, 24 µg/mL adenine, and 0.1 mg/mL primocin. During culture from frozen stock vials, PDMR cells were cultured in the same medium containing 10 µM Y-27632 (see Table 3). The PDCs were cultured in complete DMEM/F12 media without 10 microM Y-27632 dihydrochloride for at least two passages prior to the screen. The pooled donor HUVEC and hMSC were cultured in endothelial cell growth medium 2 (PromoCell, Heidelberg, Germany, cat. C-22011) and mesenchymal stem cell growth medium 2 (PromoCell, cat. C-28009), respectively. For all experiments, HUVEC and hMSC were used at passages </=5.
[…]

[1] = compound alone, run of 06/01/2021

Row | Structure (SMILES) | viability, T/C (compound 0.0316 µM) | viability, T/C (compound 0.1 µM) | viability, T/C (compound 0.316 µM) | viability, T/C (compound 1 µM) | viability, T/C (compound 3.16 µM) | viability, T/C (compound 10 µM) | IC50 (curve of compound) | viability, T/C (compound 0.01 µM) | also measured
1 | C=CC(=O)N1CCN(c2nc(=O)n(-c3c(C)ccnc3C(C)C)c3nc(-c4c(O)cccc4F)c(F)cc23)C(C)C1 (stereo not drawn) | 104% and 107% | 109% and 108% | 107% and 109% | 112% and 113% | 90.7% and 103% | 44.1% and 48.9% | 8660 nM and 9820 nM |  | 
2 | C=CCn1c(=O)c2cnc(Nc3ccc(N4CCN(C)CC4)cc3)nc2n1-c1cccc(C(C)(C)O)n1 | 92.5% and 92.3% | 59.8% and 56.2% | 23.2% and 29.1% | 18.4% and 24.8% | 11.1% and 15.6% | 9.63% and 14.2% | 136 nM and 129 nM |  | 
3 | CC(=O)c1c(C)c2cnc(Nc3ccc(N4CCNCC4)cn3)nc2n(C2CCCC2)c1=O |  |  |  |  |  |  | > 300 nM |  | viability, T/C (compound 0.000949 µM): 104% and 89.4%; viability, T/C (compound 0.003 µM): 102% and 98.4%; viability, T/C (compound 0.00949 µM): 99.7% and 96.5%; viability, T/C (compound 0.03 µM): 103% and 93.6%; viability, T/C (compound 0.0949 µM): 99.4% and 97.1%; viability, T/C (compound 0.3 µM): 90.7% and 80.9%
4 | CC(C)(C)c1cnc(CSc2cnc(NC(=O)C3CCNCC3)s2)o1 |  |  |  |  |  |  | 145 nM and 117 nM |  | viability, T/C (compound 0.00949 µM): 110% and 106%; viability, T/C (compound 0.03 µM): 105% and 110%; viability, T/C (compound 0.0949 µM): 71.5% and 59.3%; viability, T/C (compound 0.3 µM): 12.9% and 9.3%; viability, T/C (compound 0.949 µM): 7.58% and 6.45%; viability, T/C (compound 3 µM): 5.4% and 5.44%
5 | CC(C)NCC(C(=O)N1CCN(c2ncnc3c2C(C)CC3O)CC1)c1ccc(Cl)cc1 (stereo not drawn) |  | 81.1% [middle of 13 runs] | 53.8% [middle of 13 runs] | 30.9% [middle of 13 runs] | 21.7% [middle of 13 runs] | 17.5% [middle of 13 runs] |  |  | IC50 [1]: 381 nM [middle of 13 runs]
6 | CC(C)n1nc(-c2ccc3oc(N)nc3c2)c2c(N)ncnc21 | 14.4% and 12% | 10.8% and 10.1% |  |  |  |  | 1.66 nM and 2.03 nM | 22.9% and 21.7% | viability, T/C (compound 0.000316 µM): 78.7% and 94.3%; viability, T/C (compound 0.001 µM): 57.3% and 66.2%; viability, T/C (compound 0.00316 µM): 41.3% and 40.2%
7 | CC1(C)CCC(CN2CCN(c3ccc(C(=O)NS(=O)(=O)c4ccc(NCC5CCOCC5)c([N+](=O)[O-])c4)c(Oc4cnc5[nH]ccc5c4)c3)CC2)=C(c2ccc(Cl)cc2)C1 | 104% | 103% and 109% | 104% and 107% | 96.4% and 99.4% | 69.2% and 76% | 10.1% and 10.8% | 4530 nM and 4990 nM |  | 
8 | CCCS(=O)(=O)Nc1ccc(F)c(C(=O)c2c[nH]c3ncc(-c4ccc(Cl)cc4)cc23)c1F | 112% and 110% | 108% and 114% | 110% and 116% | 115% and 118% | 109% and 113% | 79.7% and 82.9% | > 10000 nM |  | 
9 | CCN1CCN(Cc2ccc(Nc3ncc(F)c(-c4cc(F)c5nc(C)n(C(C)C)c5c4)n3)nc2)CC1 | 94% [middle of 13 runs] | 84.7% [middle of 13 runs] | 74.7% [middle of 13 runs] | 65.3% [middle of 13 runs] |  |  |  | 97% [middle of 13 runs] | IC50 [1]: > 1000 nM
10 | COc1c(OCCCN2CCOCC2)ccc2c3n(c(=NC(=O)c4cnc(N)nc4)nc12)CCN3 | 27.3% and 28.9% | 15.9% and 14.9% | 10.9% and 10.1% | 11% and 11.2% |  |  | 9.92 nM and 9.81 nM | 49.7% and 48.7% | viability, T/C (compound 0.00316 µM): 78.7% and 83.3%

Reference: PubChem BioAssay AID2060335 (Molecular Pharmacology Branch, DTP, NCI, 2025)
